Results: PubChem BioAssay (NCI)
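Grown in 96-well plates, cells were treated for 48 hours with each compound at five concentrations. Insufficient inhibition: endpoint recorded as highest concentration tested. TGI marks complete inhibition of growth.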

Columns and labels:
Test in all cases: NCI tumour cell line growth inhibition, 48 h
SNB-75 CNS = tested on: SNB-75 CNS
IGROV1 ovarian = tested on: IGROV1 ovarian
HCT-116 colon = tested on: HCT-116 colon
M14 melanoma = tested on: M14 melanoma
OVCAR-8 ovarian = tested on: OVCAR-8 ovarian
PC-3 prostate = tested on: PC-3 prostate
NCI-H23 lung = tested on: NCI-H23 lung
K-562 leukemia = tested on: K-562 leukemia
A498 renal = tested on: A498 renal
SF-268 CNS = tested on: SF-268 CNS

SMILES | TGI (SNB-75 CNS) | TGI (IGROV1 ovarian) | TGI (HCT-116 colon) | TGI (M14 melanoma) | TGI (OVCAR-8 ovarian) | TGI (PC-3 prostate) | TGI (NCI-H23 lung) | TGI (K-562 leukemia) | TGI (A498 renal) | TGI (SF-268 CNS)
COc1ccccc1NC(=S)N/N=C/c1cccc(C)n1 | 53.5 µM | > 95.8 µM | > 100 µM | 9.43 µM | > 52.3 µM | > 100 µM | > 100 µM | > 100 µM | 69.7 µM | > 100 µM
O=c1[nH]nc(-c2ccccc2)n1-n1cnnc1 | > 100 µM | > 100 µM | > 100 µM | > 100 µM | > 100 µM | > 100 µM | > 100 µM | > 100 µM | > 100 µM | > 100 µM
CC/C(N)=N\NC(=O)OC(C)(C)C | > 100 µM | > 100 µM | > 100 µM | > 100 µM | > 100 µM | > 100 µM | > 100 µM | > 100 µM | > 100 µM | > 100 µM
COc1cc2c3c(cc(Cl)nc3c1OC)C(O)(CC(=O)c1ccccc1)C(=O)N2 (stereo not given) | 28.6 µM | 27.4 µM | 16.2 µM | 30.5 µM | 32.1 µM | 29.2 µM | 36.9 µM | 16.7 µM | 32.3 µM | 13.7 µM
O=C1N(c2ccccc2)C(=S)/C(=C/c2ccc(Cl)cc2)N1c1ccc(Cl)cc1 | 56.2 µM | > 100 µM | > 100 µM | > 100 µM | > 100 µM | > 100 µM | > 100 µM | > 100 µM | > 100 µM | > 100 µM
C=C1C(=O)OC2C3OC(C)(CCC(O)C3COC(C)=O)CC(OC(=O)/C(=C/C)COC(C)=O)C12 (stereo not given) | 18.1 µM | 2.85 µM | 0.216 µM | 1.01 µM | 20 µM | 4.49 µM | 2.93 µM | 6.42 µM | 3.05 µM | 7.84 µM
c1cc2c(cc1C1=NCCN1)c1cc(C3=NCCN3)ccc1n2CC1CCCCC1 | 30.6 µM | 69.7 µM | 51.1 µM | > 100 µM | > 100 µM | > 100 µM | 88.9 µM | > 100 µM | > 100 µM | 22.2 µM
O=P(O)(O)CN1CCNCCN(CP(=O)(O)O)CC1 | > 100 µM | > 100 µM | > 38 µM | > 100 µM | > 51 µM | > 100 µM | > 100 µM | > 76.6 µM | > 100 µM | > 100 µM
COC(=O)c1ccc(NCC2=C(Br)C(=O)C=CC2=O)cc1Cl | > 100 µM | 30.5 µM | 31.9 µM | 32.1 µM | 47.1 µM | 43.8 µM | 45.8 µM | > 100 µM | > 100 µM | 35.1 µM
O=C1C(c2c(O)[nH]c3ccc(S(=O)(=O)NCCO)cc23)=Nc2ccccc21 | 7.43 µM | > 100 µM | 16.2 µM | > 100 µM | > 100 µM | 54.3 µM | > 100 µM | 69.4 µM | 9.07 µM | 51 µM
CCCCCCCCCCCCOP(=O)(O)OP(=O)(O)OCC1OC(n2cc(C)c(=O)[nH]c2=O)CC1O (stereo not given) | > 100 µM | > 100 µM | > 100 µM | > 100 µM | > 100 µM | > 100 µM | > 100 µM | > 100 µM | > 100 µM | > 100 µM
CC(C)(C)[Si](C)(C)OC[C@H](/C=C\CCCC(=O)O)NC1(c2ccccc2)c2ccccc2-c2ccccc21 | > 100 µM | 97 µM | 44.8 µM | 38.8 µM | 46.2 µM | 40.3 µM | 63.2 µM | 45.5 µM | 32.1 µM | 35.4 µM
O=c1cc(N2CCCC2)[nH]c(=O)n1-c1ccc(Cl)cc1 | > 100 µM | > 100 µM | > 100 µM | > 100 µM | > 100 µM | > 100 µM | > 100 µM | > 100 µM | > 100 µM | > 100 µM
CN1CCN([C@H]2C[C@H]3[C@@H]4CC=C5C[C@@H](O)CC[C@]5(C)[C@H]4CC[C@]3(C)[C@H]2O)CC1 | 97.4 µM | > 100 µM | > 80.6 µM | 33.9 µM | > 57.1 µM | > 86.6 µM | > 100 µM | 39.7 µM | > 100 µM | > 59.4 µM
CCOC(=O)CCC(NC(=O)c1ccc(Nc2nc3ccccc3nc2C(=O)OCC)cc1)C(=O)OCC (stereo not given) | 6.16 µM | 9.2 µM | 8.6 µM | > 100 µM | 7.97 µM | > 100 µM | 17.8 µM | > 100 µM | 18.6 µM | 43.7 µM
CC(C)NC(=O)OCc1c(COC(=O)NC(C)C)c(-c2cc[n+](COC(=O)C3CCCCC3)cc2)n2c1CCC2 | > 100 µM | > 100 µM | > 100 µM | > 100 µM | > 100 µM | > 100 µM | > 100 µM | > 100 µM | > 100 µM | > 100 µM
O=C(NCCCCCN1CCC2(CCCCC2)CC1)C(C1CCCCC1)C1CCCCC1 | 9.48 µM | 8.78 µM | 8.85 µM | 3.23 µM | 7.23 µM | 8.17 µM | 9.89 µM | 3.5 µM | 9.42 µM | 12.5 µM
NS(=O)(=O)c1ccc(N=Nc2ccc(O)c(C(=O)O)c2)cc1 | > 100 µM | > 100 µM | > 100 µM | > 100 µM | > 100 µM | > 100 µM | > 100 µM | > 100 µM | > 100 µM | > 100 µM
O=S(=O)(O)c1cc(S(=O)(=O)O)c2c(N=Nc3ccc(N=Nc4ccccc4)cc3)c(O)ccc2c1 | > 100 µM | > 100 µM | > 100 µM | > 100 µM | > 100 µM | > 100 µM | > 100 µM | > 100 µM | > 100 µM | > 100 µM
